Experimental data reported in patent US11117947B2, “Double-acylated GLP-1 derivatives” (Novo Nordisk A/S, priority 2011, dated 2021).
Numbered stars: 1 amine (or outer) side, 2 acyl side, 3 side chain; on linkers, the order of the positions; unused ones are H or OH. Side chains are listed from the residue outwards. Peptide text beside a SMILES is read from it. * marks the point of attachment. Decanoyl(10-(4-HOOC-PhO)) = O=C(O)c1ccc(OCCCCCCCCCC(=O)*)cc1; γGlu = O=C(O)[C@H](CCC(=O)[*:2])N[*:1]; C14 diacid = O=C(O)CCCCCCCCCCCCC(=O)*; AEEA = NCCOCCOCC(=O)O

Test: Estimate of oral bioavailability: gut injection in rat (caprate), exposure in plasma
Format: in vivo
Settings: injection in jejunum, 1000 uM in 55 mg/ml sodium caprate, plasma concentration (pM) at 30 min divided by dosing solution concentration (μM), mean n=4
Experimental: The GLP-1 derivatives were tested in a concentration of 1000 uM in a solution of 55 mg/ml sodium caprate.
Male Sprague Dawley rats with a body weight upon arrival of approximately 240 g were obtained from Taconic (Denmark) and assigned to the different treatments by simple randomisation, 4 rats per group.
The GLP-1 derivatives were administered in the jejunum either in the proximal part (10 cm distal for the duodenum) or in the mid-intestine (50 cm proximal for the cecum). A PE50-catheter, 10 cm long was inserted into the jejunum, forwarded at least 1.5 cm into the jejunum, and secured before dosing by ligature around the gut and the catheter with 3/0 suture distal to tip to prevent leak or catheter displacement. Catheter was placed without syringe and needle and 2 ml saline was administered into abdomen before closing the incision with wound clips.
100 μl of the respective GLP-1 derivative was injected into the jejunal lumen through the catheter with a 1 ml syringe. Subsequently, 200 μl of air was pushed into the jejunal lumen with another syringe to “flush” the catheter. This syringe was leaved connected to the catheter to prevent flow back into the catheter.
Blood samples (200 ul) were collected at desired intervals (usually at times 0, 10, 30, 60, 120 and 240 min) into EDTA tubes from the tail vein and centrifuged 5 minutes, 10000G, at 4° C. within 20 minutes. […] 12, p. 240-247. The donor beads were coated with streptavidin, while acceptor beads were conjugated with a monoclonal antibody recognising a mid-/C-terminal epitope of the peptide. Another monoclonal antibody, specific for the N-terminus, was biotinylated. The three reactants were combined with the analyte and formed a two-sited immuno-complex. Illumination of the complex released singlet oxygen atoms from the donor beads, which were channeled into the acceptor beads and triggered chemiluminescence which was measured in an Envision plate reader. The amount of light was proportional to the concentration of the compound.
After the blood sampling the rats were sacrificed under anaesthesia and the abdomen was opened to verify correct catheter placement.
The mean (n=4) plasma concentrations (pmol/l) were determined as a function of time.

Compound	Dose-corrected exposure at 30 min
CC[C@H](C)[C@H](NC(=O)[C@H](Cc1ccccc1)NC(=O)[C@H](CCCCNC(=O)COCCOCCNC(=O)COCCOCCNC(=O)CC[C@H](NC(=O)CCCCCCCCCOc1ccc(C(=O)O)cc1)C(=O)O)NC(=O)[C@H](CCCNC(=N)N)NC(=O)[C@@H](NC(=O)[C@H](C)NC(=O)[C@H](CCC(N)=O)NC(=O)[C@H](CCC(=O)O)NC(=O)[C@H](CCC(=O)O)NC(=O)[C@H](CC(C)C)NC(=O)[C@H](Cc1ccc(O)cc1)NC(=O)[C@H](CO)NC(=O)[C@H](CO)NC(=O)[C@@H](NC(=O)[C@H](CC(=O)O)NC(=O)[C@H](CO)NC(=O)[C@@H](NC(=O)[C@H](Cc1ccccc1)NC(=O)[C@@H](NC(=O)CNC(=O)[C@H](CCC(=O)O)NC(=O)[C@H](C)NC(=O)[C@@H](N)Cc1c[nH]cn1)[C@@H](C)O)[C@@H](C)O)C(C)C)C(C)C)C(=O)N[C@@H](C)C(=O)N[C@@H](Cc1c[nH]c2ccccc12)C(=O)N[C@@H](CC(C)C)C(=O)N[C@H](C(=O)N[C@@H](CCCNC(=N)N)C(=O)NCC(=O)N[C@@H](CCCNC(=N)N)C(=O)N[C@@H](CCCCNC(=O)COCCOCCNC(=O)COCCOCCNC(=O)CC[C@H](NC(=O)CCCCCCCCCOc1ccc(C(=O)O)cc1)C(=O)O)C(=O)O)C(C)C [Example 4, N^ε27-[2-[2-[2-[[2-[2-[2-[[(4S)-4-carboxy-4-[10-(4-carboxyphenoxy)decanoylamino]butanoyl]amino]ethoxy]ethoxy]acetyl]amino]ethoxy]ethoxy]acetyl], N^ε37-[2-[2-[2-[[2-[2-[2-[[(4S)-4-carboxy-4-[10-(4-carboxyphenoxy)decanoylamino]butanoyl]amino]ethoxy]ethoxy]acetyl]amino]ethoxy]ethoxy]acetyl]-[Glu^22,Val^25,Arg^26,Lys^27,Arg^34,Lys^37]-GLP-1-(7-37)-peptide] (H-HAEGTFTSDVSSYLEEQAVRK([AEEA-AEEA-γGlu-Decanoyl(10-(4-HOOC-PhO))])FIAWLVRGRK([AEEA-AEEA-γGlu-Decanoyl(10-(4-HOOC-PhO))])-OH; N-terminus and C-terminus assumed)	39
CC[C@H](C)[C@H](NC(=O)[C@H](Cc1ccccc1)NC(=O)[C@H](CCCCNC(=O)COCCOCCNC(=O)COCCOCCNC(=O)CC[C@H](NC(=O)CCCCCCCCCOc1ccc(C(=O)O)cc1)C(=O)O)NC(=O)[C@H](CCCNC(=N)N)NC(=O)[C@H](C)NC(=O)[C@H](C)NC(=O)[C@H](CCC(N)=O)NC(=O)CNC(=O)[C@H](CCC(=O)O)NC(=O)[C@H](CC(C)C)NC(=O)[C@H](Cc1ccc(O)cc1)NC(=O)[C@H](CO)NC(=O)[C@H](CO)NC(=O)[C@@H](NC(=O)[C@H](CC(=O)O)NC(=O)[C@H](CO)NC(=O)[C@@H](NC(=O)[C@H](Cc1ccccc1)NC(=O)[C@@H](NC(=O)CNC(=O)[C@H](CCC(=O)O)NC(=O)[C@H](C)NC(=O)[C@@H](N)Cc1c[nH]cn1)[C@@H](C)O)[C@@H](C)O)C(C)C)C(=O)N[C@@H](CCC(=O)O)C(=O)N[C@@H](Cc1c[nH]c2ccccc12)C(=O)N[C@@H](CC(C)C)C(=O)N[C@H](C(=O)N[C@@H](CCCNC(=N)N)C(=O)NCC(=O)N[C@@H](CCCCNC(=O)COCCOCCNC(=O)COCCOCCNC(=O)CC[C@H](NC(=O)CCCCCCCCCOc1ccc(C(=O)O)cc1)C(=O)O)C(=O)NCC(=O)N[C@@H](CCC(=O)O)C(=O)O)C(C)C [Example 6, N^ε27-[2-[2-[2-[[2-[2-[2-[[(4S)-4-carboxy-4-[10-(4-carboxyphenoxy)decanoylamino]butanoyl]amino]ethoxy]ethoxy]acetyl]amino]ethoxy]ethoxy]acetyl], N^ε36-[2-[2-[2-[[2-[2-[2-[[(4S)-4-carboxy-4-[10-(4-carboxyphenoxy)decanoylamino]butanoyl]amino]ethoxy]ethoxy]acetyl]amino]ethoxy]ethoxy]acetyl]-[Arg^26,Lys^27,Glu^30,Arg^34,Lys^36]-GLP-1-(7-37)-peptidyl-Glu] (H-HAEGTFTSDVSSYLEGQAARK([AEEA-AEEA-γGlu-Decanoyl(10-(4-HOOC-PhO))])FIEWLVRGK([AEEA-AEEA-γGlu-Decanoyl(10-(4-HOOC-PhO))])GE-OH; N-terminus and C-terminus assumed)	93
CC[C@H](C)[C@H](NC(=O)[C@H](Cc1ccccc1)NC(=O)[C@H](CCCCNC(=O)COCCOCCNC(=O)COCCOCCNC(=O)CC[C@H](NC(=O)CCCCCCCCCCCCC(=O)O)C(=O)O)NC(=O)[C@H](CCCNC(=N)N)NC(=O)[C@@H](NC(=O)[C@H](C)NC(=O)[C@H](CCC(N)=O)NC(=O)[C@H](CCCCNC(=O)COCCOCCNC(=O)COCCOCCNC(=O)CC[C@H](NC(=O)CCCCCCCCCCCCC(=O)O)C(=O)O)NC(=O)[C@H](CCC(=O)O)NC(=O)[C@H](CC(C)C)NC(=O)[C@H](Cc1ccc(O)cc1)NC(=O)[C@H](CO)NC(=O)[C@H](CO)NC(=O)[C@@H](NC(=O)[C@H](CC(=O)O)NC(=O)[C@H](CO)NC(=O)[C@@H](NC(=O)[C@H](Cc1ccccc1)NC(=O)[C@@H](NC(=O)CNC(=O)[C@H](CCC(=O)O)NC(=O)[C@H](C)NC(=O)[C@@H](N)Cc1c[nH]cn1)[C@@H](C)O)[C@@H](C)O)C(C)C)C(C)C)C(=O)N[C@@H](CCC(=O)O)C(=O)N[C@@H](Cc1c[nH]c2ccccc12)C(=O)N[C@@H](CC(C)C)C(=O)N[C@H](C(=O)N[C@@H](CCC(N)=O)C(=O)NCC(=O)N[C@@H](CCCNC(=N)N)C(=O)NCC(=O)O)C(C)C [Example 11, N^ε22-[2-[2-[2-[[2-[2-[2-[[(4S)-4-carboxy-4-(13-carboxytridecanoylamino)butanoyl]amino]ethoxy]ethoxy]acetyl]amino]ethoxy]ethoxy]acetyl], N^ε27-[2-[2-[2-[[2-[2-[2-[[(4S)-4-carboxy-4-(13-carboxytridecanoylamino)butanoyl]amino]ethoxy]ethoxy]acetyl]amino]ethoxy]ethoxy]acetyl]-[Lys^22,Val^25,Arg^26,Lys^27,Glu^30,Gln^34]-GLP-1-(7-37)-peptide] (H-HAEGTFTSDVSSYLEK([AEEA-AEEA-γGlu-C14 diacid])QAVRK([AEEA-AEEA-γGlu-C14 diacid])FIEWLVQGRG-OH; N-terminus and C-terminus assumed)	66
